PMC12392461, “Beyond Estrogenicity: A Comparative Assessment of Bisphenol A and Its Alternatives in In Vitro Assays Questions Safety of Replacements” (Environmental Science & Technology, 2025)
Read-outs that look alike come from different tables or passages of the source.

Tests used:
[1] = tested on: Mitochondrial Membrane Potential; assay: cells; details: for EC10, linear: linear model; for Specificity ratio (SRbaseline) SRMMP: against baseline cytotoxicity; for Specificity ratio (SRcytotoxicity) SRMMP: against experimental cytotoxicity; for Relative effect potency REPMMP: relative to BPA
Excerpt: (§1) All bioassay media components and the ERα-UAS-bla GripTite and PPARγ-UAS-bla cells were obtained from Thermo Fisher Scientific (Waltham, MA, USA). AREc32 reporter gene cells based on MCF7 were provided by C. Roland Wolf (Cancer Research UK); AhR CALUX cells (H4L7.5c2 derived from H4IIe) were provided by Michael Denison (UC Davis, USA); and SH-SY5Y cells were purchased from Sigma-Aldrich.
(§2) Cell culture conditions and bioassay protocols including response detection are provided in Text S2.1–2.4 and Table S3. − Cell viability was determined from cell confluency using an IncuCyte S3 Live-Cell Analysis System (Sartorius AG, Essen, Germany) before and after exposure, except for SH-SY5Y cells (live–dead staining with Nuclear Green LcS1 and propidium iodide, Abcam, UK). For metabolic activation experiments, cell viability was assessed using the ToxBLAzer DualScreen Kit (Thermo Fisher Scientific) to capture the remaining toxicity in ERα-UAS-bla GripTite after treatment with the aCYP catalyst (details in Text S2.4).
(§3) For ARE, the concentration that triggered an induction ratio of 1.5 (ECIR1.5) was used as the benchmark value, as detailed in Text S2.5. IC10 values also served as a threshold for data analysis in all assays; only concentrations below IC10 were considered when deriving EC10 or ECIR1.5. […]
(§4) S2: Cell culture and bioassays
(§5) S2.1: Cell Culturing Conditions
All suppliers and sources are given in detail in SI-Excel S3. The bioassay media for the different assays were prepared as follows: Assay medium for ER alpha-UAS-bla GripTite (ERα) and […]
2% charcoal-stripped FBS, and 100 U/mL penicillin-streptomycin. MitoOxTox and AhR assay medium was comprised of 90% DMEM with GlutaMAX, supplemented with 10% FBS, and 100 U/mL penicillin-streptomycin. […]
S2.2: Cell Seeding and Incubation. For all bioassays, cell suspensions in the respective assay medium were dispensed into each well of 384-well plates using a MultiFlo Dispenser (Biotek, (now Agilent), Winooski, VT, U.S.). After seeding, the plates were incubated at 37° C and 5% CO₂ for […]. The final cell densities and plate types were as follows: Black poly-D-lysine […]
(§6) 6500 cells/well, ERα: 5000 cells/well. White 384-well plates with a clear bottom (Product No.
NYC, U.S.) for AhR: 3250 cells/well. Black Collagen I coated plates were used (Product No.
S2.3: Chemical Dosing and Assay Analysis Procedures. The dosing procedure and high-throughput assay workflow have been described in detail before. 9 The dosing concentrations […]
Stock solutions were then either

[2] = physchem; details: for Double negative form (pH = 7.40) / Negative form (pH = 7.40) / Neutral form (pH = 7.40) / αneutral % (fraction of neutral species): from experimental pKa; for pKa: pKa (Acid); for αneutral % (fraction of neutral species): pH 7.4
Procedure: Physicochemical properties provide input parameters for the baseline toxicity model. Acidity constants (pK a) and octanol–water partition constants of the neutral species (K ow) were measured with a Sirius T instrument from Pion Inc. (Sussex, UK) (Text S1.2 and Table S1). A detailed description of the pK a and K ow measurements can be found in literature. , […]
S1.2: pKa and log Kow measurements […]
titrator (Pion Inc., Sussex, U.K.). A detailed description of the experimental procedure is available in the literature.1 In brief, each sample was prepared by mixing 5 µL of a 10 mM dimethyl sulfoxide (DMSO) stock solution with 25 µL of a phosphate buffer solution (14.4 mM […]
A reference vial containing 5 µL of DMSO
(Roth, A994-100 ML) and 25 µL of phosphate buffer was analyzed alongside each sample.
The pKa values were determined using the automated UV-metric pKa protocol within the Sirius T3 Control software (version 2.0.0.0.). Each sample was subjected to three consecutive […]
from 2 to 12 by stepwise addition of 0.5 M HCl or 0.5 M potassium hydroxide while recording […]
UV absorbance. […]
To ensure reproducibility, measurements were conducted on at least two

[3] = tested on: SH-SY5Y cells; assay: cells; details: for EC10: Homo sapiens, SH-SY5Y; for EC10, linear / logEC10: NOI bioassay, dosing range all; for EC10, linear: linear model; for logEC10: log-logistic model;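 as to Relative effect potency REPNOI: EC10 of BPA divided by EC10 of the test compound so values above 1 mean more potent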;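 as to Specificity ratio (SRbaseline) SRNOI: ratio of predicted baseline cytotoxicity IC10 to the neurite outgrowth inhibition EC10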
Excerpt: as §1, §2, §3, §4, §5
(§7) All suppliers and sources are given in detail in SI-Excel S3. The bioassay media for the different assays were prepared as follows: Assay medium for ER alpha-UAS-bla GripTite (ERα) and PPAR gamma-UAS-bla 293H (PPARγ) was prepared with 98% Opti-MEM, supplemented with 2% charcoal-stripped FBS, and 100 U/mL penicillin-streptomycin. MitoOxTox and AhR assay medium was comprised of 90% DMEM with GlutaMAX, supplemented with 10% FBS, and 100 U/mL penicillin-streptomycin. Neurotoxicity assay medium consisted of the neurobasal […]
(§8) (1 picture or pasted object on this page, not shown here) […]
(§9) medium, supplemented with 2% B-27 Supplement and 2 mM GlutaMAX Supplement. SH - SY5Y cells were differentiated with 10 µM all-trans retinoic acid prior to the assay.
(§10) S2.2: Cell Seeding and Incubation. For all bioassays, cell suspensions in the respective assay medium were dispensed into each well of 384-well plates using a MultiFlo Dispenser (Biotek, (now Agilent), Winooski, VT, U.S.). After seeding, the plates were incubated at 37° C and 5% CO₂ for […]. The final cell densities and plate types were as follows: Black poly-D-lysine coated 384-well plates (Product No. 354663, Corning Inc., NYC, U.S.) were used for PPARγ:
as §6
(§11) 781098, Greiner, Kremsmünster, Austria) were utilized for the MitoOxTox assay: 2650

[4] = tested on: Antioxidant response element; assay: MitoOxTox: oxidative stress response in AREc32; details: for EC10, linear / logEC10: Bioassay ARE, dosing range all; for EC10, linear: linear model fit; for logEC10: log-logistic model fit; for EC10: Arec32, read-out: EC10, linear transformed
Excerpt: as §1, §2, §3, §4, §5, §7, §8, §9, §10, §6, §11

[5] = Arec32, read-out: EC10, MMP (M)
[6] = Arec32, read-out: EC10, linear transformed
[7] = read-out: EC10, linear transformed
[8] = second pKa column, experimental, this study

Row | SMILES | EC10 ([1]; Arec32, read-out: EC10, MMP) [M] | EC10 [1, 5] [M] | EC10 ([1]; Arec32, read-out: EC10, linear) [M] | EC10 [1, 6] [M] | EC10 ([1]; Arec32, read-out: logEC10) [M] | pKa (Acid) [2] | Double negative form (pH = 7.40) [2] [%] | Negative form (pH = 7.40) [2] [%] | Neutral form (pH = 7.40) [2] [%] | pKa [2] | EC10 ([3]; read-out: EC10, NOI) [M] | EC10 ([3]; read-out: EC10, NOI (M)) [M] | EC10 ([3]; read-out: EC10, linear) [M] | EC10 [3, 7] [M] | EC10 ([3]; read-out: logEC10) [M] | EC10, linear [4] | logEC10 [4] | EC10, linear ([1]; MMP bioassay, dosing range all) | αneutral % (fraction of neutral species) [2] [%] | logEC10 [3] | other results
1 | Oc1ccc(C(c2ccc(O)cc2)(C(F)(F)F)C(F)(F)F)cc1 [BPAF, 4,4'-(1,1,1,3,3,3-Hexafluoropropane-2,2-diyl)diphenol] | 5.32e-06 | 5.32e-06 | 3.05e-06 | 5.27e-06 | 5.37e-06 | 8.73 | 0.0417 | 4.47 | 95 | 9.43 | 1.62e-05 | 1.62e-05 | 1.93e-05 | 2.61e-05 | 1.62e-05 | no effect | no effect |  |  |  | 
2 | CC(c1ccccc1)(c1ccc(O)cc1)c1ccc(O)cc1 [BPAP, 4,4'-(1-Phenylethylidene)bisphenol] |  |  |  | 2.84e-05 |  | 9.99 | 0.00503 | 2 | 98 | 9.1 | 5.12e-05 | 5.12e-05 | 4.83e-05 | 5.09e-05 | 5.13e-05 | no effect | no effect | no effect |  |  | logEC10 ([1]; MMP bioassay, dosing range all, log-logistic model): no effect
3 | CCC(C)(c1ccc(O)cc1)c1ccc(O)cc1 [BPB, 4,4'-(Butane-2,2-diyl)diphenol] | 1.64e-05 | 1.64e-05 | 9.79e-06 | 1.62e-05 | 1.62e-05 | 10.33 | 0.000865 | 0.736 | 99 | 9.53 | 2.8e-05 | 2.8e-05 | 4.03e-05 | 3.89e-05 | 2.82e-05 | no effect | no effect |  | 99 |  | Specificity ratio (SRbaseline) SRMMP [1]: 1.33; Specificity ratio (SRcytotoxicity) SRMMP [1]: 2.14; Relative effect potency REPMMP [1]: 1.71; Specificity ratio (SRbaseline) SRNOI ([3]; against baseline cytotoxicity): 0.59; Specificity ratio (SRcytotoxicity) SRNOI ([3]; against experimental cytotoxicity): 5.98; Relative effect potency REPNOI ([3]; relative to BPA): 1.81
4 | CC(c1ccc(O)cc1)c1ccc(O)cc1 [BPE, 4,4′-Ethylidenbisphenol] | 3.21e-05 | 3.21e-05 |  | 3.01e-05 | 3.24e-05 | 9.99 | 0.00576 | 2.24 | 98 | 9.04 | 0.000114 | 0.000114 | 0.000136 | 0.000235 | 0.000115 | no effect | masked by cytotoxicity | no effect | 98 |  | EC10 [4]: 3720 µM
5 | Oc1ccc(Cc2ccc(O)cc2)cc1 [BPF, Bis(4-hydroxyphenyl)methane] |  |  | 0.000167 | 0.000167 | 0.000166 | 10.27 | 0.000993 | 0.736 | 99 | 9.53 |  |  |  | 0.000697 |  | no effect | masked by cytotoxicity |  | 99 | no effect | EC10, linear [3]: no effect; EC10 [4]: 1470 µM
6 | CC(C)c1cc(C(C)(C)c2ccc(O)c(C(C)C)c2)ccc1O [BPG, 2,2-Bis(4-hydroxy-3-isopropylphenyl)propane] | 3.12e-06 | 3.12e-06 | 2.65e-06 | 3.08e-06 | 3.09e-06 |  | 4.07e-6 | 0.0363 | 100 |  |  |  |  | 2.67e-05 |  | no effect | no effect |  | 100 | no effect | Specificity ratio (SRbaseline) SRMMP [1]: 1.70; Specificity ratio (SRcytotoxicity) SRMMP [1]: 2.79; Relative effect potency REPMMP [1]: 8.97; pKa [2, 8]: 11.3; pKa ([2]; experimental, this study): 10.8; EC10, linear [3]: no effect
7 | CC(C)(c1ccc(O)c(-c2ccccc2)c1)c1ccc(O)c(-c2ccccc2)c1 [BPPH, 2,2-Bis(2-hydroxy-5-biphenylyl)propane] | 1.96e-06 | 1.96e-06 |  | 1.94e-06 | 1.95e-06 |  | 0.000533 | 0.825 | 99 |  |  |  | 9.84e-06 | 2.12e-05 |  | no effect | no effect | no effect | 99 | no effect | Specificity ratio (SRbaseline) SRMMP [1]: 2.08; Specificity ratio (SRcytotoxicity) SRMMP [1]: 3.95; log(1/EC10) MMP ([1]; input of the ToxPi score, values up to 1.00): 1.00; Relative effect potency REPMMP [1]: 14.27; pKa [2, 8]: 10.6; pKa ([2]; experimental, this study): 9.48
8 | O=S(=O)(c1ccc(O)cc1)c1ccc(O)cc1 [BPS, 4,4'-Sulfonyldiphenol] | 0.000117 | 0.000117 | 7.55e-05 | 0.000118 | 0.000117 | 8.16 | 9 | 52 | 39 | 7.28 |  |  |  | 0.000411 |  | no effect | no effect |  | 39 | no effect | EC10, linear [3]: no effect
